{
  "source": "patent US20250188545A1",
  "about": "“METHODS FOR PREDICTING RESPONSIVENESS OF LYMPHOMA TO DRUG AND METHODS FOR TREATING LYMPHOMA” (Celgene Corporation, priority 2022, published 2025)",
  "origin": "cited, not measured here",
  "test_system": "high-risk ABC DLBCL population",
  "conditions": "PHOENIX (ibrutinib), ROBUST (lenalidomide)",
  "data": [
    {"compound": "Nc1cccc2c1CN(C1CCC(=O)NC1=O)C2=O", "note": "(stereo not shown) [lenalidomide]", "values": [
      {"measurement": "activity combined with R-CHOP compared to R-CHOP alone", "result": "did not demonstrate greater activities"}
    ]}
  ]
}
